By IC50 is commonly meant the midpoint of a concentration-inhibition curve. Usually logP stands for the decadic logarithm of the partition coefficient of the neutral form, usually between octanol and water.

These results are taken from article PMC12098374, “Case report: Treatment of severe phorate poisoning” (Frontiers in Toxicology, 2025).

The structures appear in SMILES notation.

A short description of data set [1]: Serum levels of phorate, its metabolites and PAM in the poisoned patient (LC-MS). The class given is in vivo, human. Conditions: for concentration at 1 day / concentration at 4 h / concentration at 3 day / concentration at 5 day / concentration at 7 day / concentration at 10 day / concentration at 12 day / concentration at 14 day / concentration at 16 day / concentration at 18 day: human, in vivo; for change of serum level while HP was stopped: seventh-10th day, family rejected HP. As for the experimental part:
LC-MS was used to detect atropine,PAM,phorate and its metabolites. Ultra-high-pressure liquid chromatography-tandem mass spectrometry on a Sciex Triple TOFTM 5600+ mass spectrometer was used for toxic metabolites terminology screening. Ultra-high-pressure liquid chromatography-tandem mass spectrometry on a Sciextriplequad5500 mass spectrometer was used to detect target analytes quantitatively. Liquid chromatographic separations were performed with a Kinetex C18 column (2.1*50 mm,2.6 μm) from Phenomenex (Torrance, California, United States).Data were processed using the Xcalibur software (version2.0.7) from ThermoFisher.

The target in data set [2] is cholinesterase. Conditions: ref Kovarova et al., 2013, cited from earlier work; for IC50: read-out: cholinesterase inhibition IC50; for times more toxic than phorate: relative to phorate, from IC50.
Data set [3] concerns the target T1, cholinesterase (Homo sapiens, UniProt P06276).
T1 construct: from tissue; host or cells: serum of the patient
Description: Serum cholinesterase level of the patient during phorate poisoning. The class given is in vivo. Conditions: for serum cholinesterase activity: patient. As for the experimental part:
Cholinesterase levels were measured using petrochemistry products, Ortho Medical Equipment Trade (China) Co., Ltd. slides, and the Medical Device of the PRC Registration Certificate NO.: 20212402803. Dry tablets (rate method) and compound calibrator for cholinesterase were determined by cholinesterase on a vitros5600 automatic biochemical immunoanalyzer (VITROS Chemistry Products, Calibrator kit 6). The reportable range of measurement was 200–12,500 U/L.

The subject of data set [4] is AChE. Also on record: method as in Moyer et al., 2018b. The settings on record: within 48 h; ref Moyer et al., 2018b; cited from earlier work.
For data set [5] the following is noted: liposolubility; cited from earlier work.
The conditions of data set [6]: 24 h after ingestion; cited from earlier work.
Where [7] appears, read: patient, day 1, before HP, about 4 h after ingestion of 60% phorate emulsion.

T1 sequence (P06276 29-602): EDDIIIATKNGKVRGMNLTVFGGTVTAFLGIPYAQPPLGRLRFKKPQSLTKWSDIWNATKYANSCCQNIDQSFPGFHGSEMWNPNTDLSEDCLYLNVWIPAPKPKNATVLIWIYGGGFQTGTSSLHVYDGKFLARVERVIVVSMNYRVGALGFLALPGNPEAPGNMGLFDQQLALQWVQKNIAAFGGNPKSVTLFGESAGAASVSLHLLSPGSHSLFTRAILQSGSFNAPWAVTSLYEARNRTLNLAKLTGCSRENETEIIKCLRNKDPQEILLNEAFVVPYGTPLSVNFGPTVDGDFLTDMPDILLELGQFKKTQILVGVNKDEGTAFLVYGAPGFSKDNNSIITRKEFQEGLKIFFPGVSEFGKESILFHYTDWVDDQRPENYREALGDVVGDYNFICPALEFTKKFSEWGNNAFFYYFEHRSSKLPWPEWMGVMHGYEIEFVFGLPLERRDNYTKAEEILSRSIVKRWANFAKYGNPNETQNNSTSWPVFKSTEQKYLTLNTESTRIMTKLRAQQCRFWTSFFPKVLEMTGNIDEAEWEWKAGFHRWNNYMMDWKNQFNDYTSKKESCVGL

As for `C[n+]1ccccc1/C=N/O` [PAM, pralidoxime chloride, reference compound], in data set [1] (sixth day, after 0.5 g per hour for 5 days), the “concentration of PAM” value is on record as “significantly increased”.
Consider `CCOP(=S)(OCC)SCS(=O)(=O)CC` [phorate sulfone], for which, in data set [2], the IC50 was 40 µM and the “times more toxic than phorate” value was “about 80 times”. The concentration at 1 day in data set [1] (patient, day 1, after HP) worked out at 1310 ng/mL. In addition, the concentration at 4 h in data set [1] (setting [7]) was 1920 ng/mL. Moreover, the concentration at 3 day in data set [1] (patient, day 3) stood at 191 ng/mL. In addition, the concentration at 5 day in data set [1] (patient, day 5) turned out to be 68.9 ng/mL. Also, the concentration at 7 day in data set [1] (patient, day 7 (HP suspended)) amounted to 30.7 ng/mL. In addition, the concentration at 10 day in data set [1] (patient, day 10 (HP suspended)) was 31 ng/mL. For the same compound, the concentration at 12 day in data set [1] (patient, day 12) was 14.8 ng/mL. Further, in data set [1] (patient, day 14), the concentration at 14 day worked out at 18.2 ng/mL. For the same compound, in data set [1] (patient, day 16), the concentration at 16 day turned out to be 10.8 ng/mL. For the same compound, in data set [1] (patient, day 18), the concentration at 18 day amounted to 2.71 ng/mL. The “change of serum level while HP was stopped” value (from here on “change”) in data set [1] is listed as “slight rise”.
`CCOP(=S)(OCC)SC[S+]([O-])CC` (stereo not shown) [phorate sulfoxide]: the IC50 in data set [2] was 1500 µM. The concentration at 1 day in data set [1] (patient, day 1, after HP) came to 1020 ng/mL. For the same compound, the concentration at 4 h in data set [1] (setting [7]) was found to be 1440 ng/mL. In data set [1] (patient, day 3), the concentration at 3 day worked out at 21.2 ng/mL. In addition, the concentration at 5 day in data set [1] (patient, day 5) is 10.9 ng/mL. Besides, the concentration at 7 day in data set [1] (patient, day 7 (HP suspended)) amounted to 35.2 ng/mL. Also, the concentration at 10 day in data set [1] (patient, day 10 (HP suspended)) stood at 80.2 ng/mL. In addition, in data set [1] (patient, day 12), the concentration at 12 day stood at 18.1 ng/mL. In addition, in data set [1] (patient, day 14), the concentration at 14 day was found to be 17.6 ng/mL. The concentration at 16 day in data set [1] (patient, day 16) came out at 1.67 ng/mL. Besides, the concentration at 18 day in data set [1] (patient, day 18) amounted to 0 ng/mL. Besides, in data set [1], the “change” value is listed as “significant rise”.
`CCOP(=S)(OCC)SCSCC` [phorate, phosphorodithioic acid O, O-diethyl S-[(ethylthio)methyl] ester]: the cholinesterase levels in data set [3] (23rd day) was 1,634 U/L; in data set [3] (27th day), 3592 U/L; in data set [3] (34th day), 4,821 U/L. In addition, the “serum cholinesterase, share of the normal value” in data set [3] (after 30 days) is recorded as “about 50%”. In addition, the serum cholinesterase activity is 268 u/L in data set [3] (day 1); 200 u/L in data set [3] (day 3); 200 u/L in data set [3] (day 7); 233 u/L in data set [3] (day 14); 3621 u/L in data set [3] (day 28). For the same compound, the serum cholinesterase in data set [3] (upon transfer into ICU, after first blood perfusion) came to 268 U/L. The “aging of AChE inhibited by phorate” value in data set [4] is on record as “no significant aging”. In data set [2], the IC50 was 3100 µM. For the same compound, the logP in data set [5] is on record as 3.71. Also, in data set [6], the “unmetabolized phorate in blood” value is reported as “no longer detectable”. The phorate in blood entry in data set [1] (after the first HP treatment and subsequent daily HP treatments) is reported as “not detected”. In data set [1] (before HP, about 4 h after ingestion), the “unmetabolized phorate in first blood analysis” value was “did not detect”. Moreover, the “levels in the serum” value in data set [1] (patient, 34th day) was < 10 ng/mL.
With `CCOP(=O)(OCC)SCS(=O)(=O)CC` [phoratoxon sulfone], in data set [2], the IC50 was 0.5 µM and the “times more toxic than phorate” value was 1000 times. Moreover, the concentration at 1 day in data set [1] (patient, day 1, after HP) stood at 2110 ng/mL. The concentration at 4 h in data set [1] (setting [7]) is 3240 ng/mL. Moreover, in data set [1] (patient, day 3), the concentration at 3 day was 221 ng/mL. In addition, the concentration at 5 day in data set [1] (patient, day 5) came to 114 ng/mL. Also, the concentration at 7 day in data set [1] (patient, day 7 (HP suspended)) worked out at 65.2 ng/mL. The concentration at 10 day in data set [1] (patient, day 10 (HP suspended)) was 44.9 ng/mL. For the same compound, in data set [1] (patient, day 12), the concentration at 12 day is 33.3 ng/mL. Moreover, the concentration at 14 day in data set [1] (patient, day 14) was 29.4 ng/mL. Besides, the concentration at 16 day in data set [1] (patient, day 16) was 20.9 ng/mL. For the same compound, the concentration at 18 day in data set [1] (patient, day 18) was determined as 20.3 ng/mL. The “change” value in data set [1] is reported as “gradually fell”.
Turning to `CCOP(=O)(OCC)SC[S+]([O-])CC` (stereo not shown) [phoratoxon sulfoxide], in data set [2], the IC50 is 0.9 µM. Besides, the “times more toxic than phorate” value in data set [2] was 1000 times. Further, the serum concentration is given as 2180 ng/mL in data set [1] (patient, day 1, after HP); 4170 ng/mL in data set [1] (setting [7]); 696 ng/mL in data set [1] (patient, day 3); 304 ng/mL in data set [1] (patient, day 5); 219 ng/mL in data set [1] (patient, day 7 (HP suspended)); 177 ng/mL in data set [1] (patient, day 10 (HP suspended)). Moreover, the serum concentration in data set [1] (patient, day 12) amounted to 96.2 ng/mL; in data set [1] (patient, day 14), 72.3 ng/mL; in data set [1] (patient, day 16), 14.5 ng/mL; in data set [1] (patient, day 18) it was 0.743 ng/mL. Also, in data set [1], the “change” value is reported as “gradually fell”.
For `CCOP(=O)(OCC)SCSCC` [phoratoxon], in data set [2], the IC50 is 3 µM. Further, the “times more toxic than phorate” value in data set [2] was 1000 times. The serum concentration in data set [1] (patient, day 1, after HP) is 161 ng/mL; in data set [1] (setting [7]) it was 195 ng/mL; in data set [1] (patient, day 3), 27.7 ng/mL; in data set [1] (patient, day 5), 3.33 ng/mL; in data set [1] (patient, day 7 (HP suspended)) it was 2.10 ng/mL; in data set [1] (patient, day 10 (HP suspended)), 1.01 ng/mL. Moreover, the serum concentration in data set [1] (patient, day 12) amounted to 0.433 ng/mL; in data set [1] (patient, day 14) it was 0.415 ng/mL; in data set [1] (patient, day 16), 0 ng/mL; in data set [1] (patient, day 18), 0 ng/mL. For the same compound, the “change” value in data set [1] is “gradually fell”.
